Test results as given in the NIST ThermoML archive (doi:10.1016/j.tca.2004.12.008).

Assay: mn = molality of the nth substance listed, in mol/kg
Details: 101.3 kPa, Liquid, Vibrating tube method

NCC(=O)NCC(=O)O [glycylglycine] + O
mass density [kg/m3]
Details	m1 = 0.0949	m1 = 0.2052	m1 = 0.2997	m1 = 0.4062	m1 = 0.5069
298.15 K	1002.54	1008.5	1013.49	1018.99	1024.06
308.15 K	999.21	1005.1	1010.03	1015.47	1020.5
